Measurements as given in patent US12568972B2, “Pyridazinol compounds and derivatives, preparation methods, herbicidal compositions and applications thereof” (Qingdao Kingagroot Chemical Compound Co., Ltd., priority 2018, dated 2026).

What was measured:
Assay in all cases: Post-emergence test, weed control effect
Format in all cases: in vivo
Settings in all cases: after 3 weeks
Amaranthus retroflexus = system: Amaranthus retroflexus
Procedure, shortened: (§1)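 Weeds grown from seed in soil-filled pots in a greenhouse were sprayed at the 2-3 leaf stage, 2-3 weeks after sowing, with compound in acetone/Tween-80/water plus 80% vegetable oil methyl ester synergist at 1500 g/ha. Fresh-weight inhibition was scored on a 0-10 scale after 3 weeks.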

Chenopodiaceae = system: Chenopodiaceae
Procedure, shortened: as §1

Rorippa indica = system: Rorippa indica
Procedure, shortened: as §1

Veronica polita = system: Veronica polita
Procedure, shortened: as §1

Oc1cc(C(F)(F)F)nnc1-c1ccc2c(c1)OCO2 [Compound 771]
10: weed control effect (activity level), Amaranthus retroflexus (Amaranthus retroflexus; Dose 3000 g/ha) | weed control effect (activity level), Chenopodiaceae (Chenopodiaceae; Dose 3000 g/ha) | weed control effect (activity level), Rorippa indica (Rorippa indica; Dose 3000 g/ha) | weed control effect (activity level), Veronica polita (Veronica polita; Dose 3000 g/ha)

O=[N+]([O-])c1ccc(F)c(-c2nnc(C(F)(F)F)cc2O)c1 [Compound 61]
10: weed control effect (activity level), Amaranthus retroflexus (Amaranthus retroflexus; dose 1000 g/ha) | weed control effect (activity level), Chenopodiaceae (Chenopodiaceae; dose 1000 g/ha) | weed control effect (activity level), Rorippa indica (Rorippa indica; dose 1000 g/ha) | weed control effect (activity level), Veronica polita (Veronica polita; dose 1000 g/ha)

O=C(Oc1cc(C(F)(F)F)nnc1-c1ccc(F)cc1)c1cccc2ccsc12 [Compound 1-119]
10: weed control effect, Amaranthus retroflexus (activity level) (Amaranthus retroflexus; Dose 3000 g/ha) | weed control effect, Chenopodiaceae (activity level) (Chenopodiaceae; Dose 3000 g/ha) | weed control effect, Rorippa indica (activity level) (Rorippa indica; Dose 3000 g/ha) | weed control effect, Veronica polita (activity level) (Veronica polita; Dose 3000 g/ha)

CCOC(=O)CCCOc1cc(C(F)(F)F)nnc1-c1ccc(F)cc1 [Compound 1-207]
10: weed control effect, Amaranthus retroflexus (activity level) (Amaranthus retroflexus; Dose 3000 g/ha) | weed control effect, Chenopodiaceae (activity level) (Chenopodiaceae; Dose 3000 g/ha) | weed control effect, Rorippa indica (activity level) (Rorippa indica; Dose 3000 g/ha) | weed control effect, Veronica polita (activity level) (Veronica polita; Dose 3000 g/ha)

COc1cc(Cl)c(COc2cc(C(F)(F)F)nnc2-c2ccc(F)cc2)cc1Cl [Compound 1-211]
10: weed control effect, Amaranthus retroflexus (activity level) (Amaranthus retroflexus; Dose 3000 g/ha) | weed control effect, Chenopodiaceae (activity level) (Chenopodiaceae; Dose 3000 g/ha) | weed control effect, Rorippa indica (activity level) (Rorippa indica; Dose 3000 g/ha) | weed control effect, Veronica polita (activity level) (Veronica polita; Dose 3000 g/ha)

CCCCC(=O)Oc1cc(C(F)(F)F)nnc1-c1ccc(Cl)c(Cl)c1 [Compound 1-7]
10: weed control effect, Amaranthus retroflexus (activity level) (Amaranthus retroflexus; Dose 3000 g/ha) | weed control effect, Chenopodiaceae (activity level) (Chenopodiaceae; Dose 3000 g/ha) | weed control effect, Rorippa indica (activity level) (Rorippa indica; Dose 3000 g/ha) | weed control effect, Veronica polita (activity level) (Veronica polita; Dose 3000 g/ha)

Fc1ccc(-c2nnc(C(F)(F)F)cc2OCc2ccccc2)cc1 [Compound 1-209]
10: weed control effect, Amaranthus retroflexus (activity level) (Amaranthus retroflexus; Dose 3000 g/ha) | weed control effect, Chenopodiaceae (activity level) (Chenopodiaceae; Dose 3000 g/ha) | weed control effect, Rorippa indica (activity level) (Rorippa indica; Dose 3000 g/ha) | weed control effect, Veronica polita (activity level) (Veronica polita; Dose 3000 g/ha)

CCCC(C)CC/C(C)=N\Oc1cc(C(F)(F)F)nnc1-c1ccccc1 (stereo not drawn) [Compound 1-181]
10: weed control effect, Amaranthus retroflexus (activity level) (Amaranthus retroflexus; Dose 3000 g/ha) | weed control effect, Chenopodiaceae (activity level) (Chenopodiaceae; Dose 3000 g/ha) | weed control effect, Rorippa indica (activity level) (Rorippa indica; Dose 3000 g/ha) | weed control effect, Veronica polita (activity level) (Veronica polita; Dose 3000 g/ha)

CC(C)(C)C(=O)Oc1cc(C(F)(F)F)nnc1-c1ccc(C(F)(F)F)nc1 [Compound 1-9]
10: weed control effect, Amaranthus retroflexus (activity level) (Amaranthus retroflexus; Dose 3000 g/ha) | weed control effect, Chenopodiaceae (activity level) (Chenopodiaceae; Dose 3000 g/ha) | weed control effect, Rorippa indica (activity level) (Rorippa indica; Dose 3000 g/ha) | weed control effect, Veronica polita (activity level) (Veronica polita; Dose 3000 g/ha)

O=[N+]([O-])c1cc(-c2nnc(C(F)(F)F)cc2O)ccc1Br [Compound 755]
10: weed control effect (activity level), Amaranthus retroflexus (Amaranthus retroflexus; Dose 3000 g/ha) | weed control effect (activity level), Chenopodiaceae (Chenopodiaceae; Dose 3000 g/ha) | weed control effect (activity level), Rorippa indica (Rorippa indica; Dose 3000 g/ha) | weed control effect (activity level), Veronica polita (Veronica polita; Dose 3000 g/ha)

Cn1ncc(I)c1-c1nnc(C(F)(F)F)cc1O [Compound 807]
10: weed control effect (activity level), Amaranthus retroflexus (Amaranthus retroflexus; Dose 3000 g/ha) | weed control effect (activity level), Chenopodiaceae (Chenopodiaceae; Dose 3000 g/ha) | weed control effect (activity level), Rorippa indica (Rorippa indica; Dose 3000 g/ha) | weed control effect (activity level), Veronica polita (Veronica polita; Dose 3000 g/ha)

CCCCOC(=O)Oc1cc(C(F)(F)F)nnc1-c1ccc(F)cc1 [Compound 1-29]
10: weed control effect, Amaranthus retroflexus (activity level) (Amaranthus retroflexus; Dose 3000 g/ha) | weed control effect, Chenopodiaceae (activity level) (Chenopodiaceae; Dose 3000 g/ha) | weed control effect, Rorippa indica (activity level) (Rorippa indica; Dose 3000 g/ha) | weed control effect, Veronica polita (activity level) (Veronica polita; Dose 3000 g/ha)

CN(C)C(=O)Oc1cc(C(F)(F)F)nnc1-c1ccc(F)c(F)c1 [Compound 1-60]
10: weed control effect, Amaranthus retroflexus (activity level) (Amaranthus retroflexus; Dose 3000 g/ha) | weed control effect, Chenopodiaceae (activity level) (Chenopodiaceae; Dose 3000 g/ha) | weed control effect, Rorippa indica (activity level) (Rorippa indica; Dose 3000 g/ha) | weed control effect, Veronica polita (activity level) (Veronica polita; Dose 3000 g/ha)

Oc1cc(C(F)(F)F)nnc1-c1cccc(I)c1 [Compound 29]
10: weed control effect (activity level), Amaranthus retroflexus (Amaranthus retroflexus; dose 1000 g/ha) | weed control effect (activity level), Chenopodiaceae (Chenopodiaceae; dose 1000 g/ha) | weed control effect (activity level), Rorippa indica (Rorippa indica; dose 1000 g/ha) | weed control effect (activity level), Veronica polita (Veronica polita; dose 1000 g/ha)

Oc1cc(C(F)(F)F)nnc1-c1cccc(Br)c1 [Compound 31]
10: weed control effect (activity level), Amaranthus retroflexus (Amaranthus retroflexus; dose 1000 g/ha) | weed control effect (activity level), Chenopodiaceae (Chenopodiaceae; dose 1000 g/ha) | weed control effect (activity level), Rorippa indica (Rorippa indica; dose 1000 g/ha) | weed control effect (activity level), Veronica polita (Veronica polita; dose 1000 g/ha)

O=[N+]([O-])c1ccc(Cl)c(-c2nnc(C(F)(F)F)cc2O)c1 [Compound 69]
10: weed control effect (activity level), Amaranthus retroflexus (Amaranthus retroflexus; dose 1000 g/ha) | weed control effect (activity level), Chenopodiaceae (Chenopodiaceae; dose 1000 g/ha) | weed control effect (activity level), Rorippa indica (Rorippa indica; dose 1000 g/ha) | weed control effect (activity level), Veronica polita (Veronica polita; dose 1000 g/ha)

CN1CCN(C(=O)Oc2cc(C(F)(F)F)nnc2-c2ccc(F)cc2)CC1 [Compound 1-64]
10: weed control effect, Amaranthus retroflexus (activity level) (Amaranthus retroflexus; Dose 3000 g/ha) | weed control effect, Chenopodiaceae (activity level) (Chenopodiaceae; Dose 3000 g/ha) | weed control effect, Rorippa indica (activity level) (Rorippa indica; Dose 3000 g/ha) | weed control effect, Veronica polita (activity level) (Veronica polita; Dose 3000 g/ha)

Oc1cc(C(F)(F)F)nnc1-c1ccc(F)cc1C(F)(F)F [Compound 764]
10: weed control effect (activity level), Amaranthus retroflexus (Amaranthus retroflexus; Dose 3000 g/ha) | weed control effect (activity level), Chenopodiaceae (Chenopodiaceae; Dose 3000 g/ha) | weed control effect (activity level), Rorippa indica (Rorippa indica; Dose 3000 g/ha) | weed control effect (activity level), Veronica polita (Veronica polita; Dose 3000 g/ha)

Oc1cc(C(F)(F)F)nnc1-c1c(Cl)ccnc1F [Compound 999]
10: weed control effect (activity level), Amaranthus retroflexus (Amaranthus retroflexus; Dose 3000 g/ha) | weed control effect (activity level), Chenopodiaceae (Chenopodiaceae; Dose 3000 g/ha) | weed control effect (activity level), Rorippa indica (Rorippa indica; Dose 3000 g/ha) | weed control effect (activity level), Veronica polita (Veronica polita; Dose 3000 g/ha)

Oc1cc(C(F)(F)F)nnc1-c1ccc2cc[nH]c2c1 [Compound 588]
10: weed control effect (activity level), Amaranthus retroflexus (Amaranthus retroflexus; Dose 3000 g/ha) | weed control effect (activity level), Chenopodiaceae (Chenopodiaceae; Dose 3000 g/ha) | weed control effect (activity level), Rorippa indica (Rorippa indica; Dose 3000 g/ha) | weed control effect (activity level), Veronica polita (Veronica polita; Dose 3000 g/ha)

CC(=O)Oc1ccccc1C(=O)Oc1cc(C(F)(F)F)nnc1-c1ccccc1 [Compound 1-87]
10: weed control effect, Amaranthus retroflexus (activity level) (Amaranthus retroflexus; Dose 3000 g/ha) | weed control effect, Chenopodiaceae (activity level) (Chenopodiaceae; Dose 3000 g/ha) | weed control effect, Rorippa indica (activity level) (Rorippa indica; Dose 3000 g/ha) | weed control effect, Veronica polita (activity level) (Veronica polita; Dose 3000 g/ha)

CCCC/C(C)=N\Oc1cc(C(F)(F)F)nnc1-c1ccc(S(C)(=O)=O)cc1 [Compound 1-175]
10: weed control effect, Amaranthus retroflexus (activity level) (Amaranthus retroflexus; Dose 3000 g/ha) | weed control effect, Chenopodiaceae (activity level) (Chenopodiaceae; Dose 3000 g/ha) | weed control effect, Rorippa indica (activity level) (Rorippa indica; Dose 3000 g/ha) | weed control effect, Veronica polita (activity level) (Veronica polita; Dose 3000 g/ha)

CCCCCCCCSC(=S)Oc1cc(C(F)(F)F)nnc1-c1ccc(F)c(F)c1 [Compound 1-163]
10: weed control effect, Amaranthus retroflexus (activity level) (Amaranthus retroflexus; Dose 3000 g/ha) | weed control effect, Chenopodiaceae (activity level) (Chenopodiaceae; Dose 3000 g/ha) | weed control effect, Rorippa indica (activity level) (Rorippa indica; Dose 3000 g/ha) | weed control effect, Veronica polita (activity level) (Veronica polita; Dose 3000 g/ha)

Cc1ccc(S(=O)(=O)Oc2cc(C(F)(F)F)nnc2-c2ccnc(F)c2)cc1 [Compound 1-126]
10: weed control effect, Amaranthus retroflexus (activity level) (Amaranthus retroflexus; Dose 3000 g/ha) | weed control effect, Chenopodiaceae (activity level) (Chenopodiaceae; Dose 3000 g/ha) | weed control effect, Rorippa indica (activity level) (Rorippa indica; Dose 3000 g/ha) | weed control effect, Veronica polita (activity level) (Veronica polita; Dose 3000 g/ha)

Oc1cc(C(F)(F)F)nnc1-c1ccc2c(c1)OC(F)(F)O2 [Compound 1286]
10: weed control effect (activity level), Amaranthus retroflexus (Amaranthus retroflexus; Dose 3000 g/ha) | weed control effect (activity level), Chenopodiaceae (Chenopodiaceae; Dose 3000 g/ha) | weed control effect (activity level), Rorippa indica (Rorippa indica; Dose 3000 g/ha) | weed control effect (activity level), Veronica polita (Veronica polita; Dose 3000 g/ha)

Cc1cc(C(=O)Oc2cc(C(F)(F)F)nnc2-c2ccc(F)c(F)c2)no1 [Compound 1-107]
10: weed control effect, Amaranthus retroflexus (activity level) (Amaranthus retroflexus; Dose 3000 g/ha) | weed control effect, Chenopodiaceae (activity level) (Chenopodiaceae; Dose 3000 g/ha) | weed control effect, Rorippa indica (activity level) (Rorippa indica; Dose 3000 g/ha) | weed control effect, Veronica polita (activity level) (Veronica polita; Dose 3000 g/ha)

O=C(CCc1ccccc1)Oc1cc(C(F)(F)F)nnc1-c1ccc(F)c(F)c1 [Compound 1-98]
10: weed control effect, Amaranthus retroflexus (activity level) (Amaranthus retroflexus; Dose 3000 g/ha) | weed control effect, Chenopodiaceae (activity level) (Chenopodiaceae; Dose 3000 g/ha) | weed control effect, Rorippa indica (activity level) (Rorippa indica; Dose 3000 g/ha) | weed control effect, Veronica polita (activity level) (Veronica polita; Dose 3000 g/ha)

O=S(=O)(Oc1cc(C(F)(F)F)nnc1-c1ccc(F)c(F)c1)c1ccc(Cl)cc1F [Compound 1-128]
10: weed control effect, Amaranthus retroflexus (activity level) (Amaranthus retroflexus; Dose 3000 g/ha) | weed control effect, Chenopodiaceae (activity level) (Chenopodiaceae; Dose 3000 g/ha) | weed control effect, Rorippa indica (activity level) (Rorippa indica; Dose 3000 g/ha) | weed control effect, Veronica polita (activity level) (Veronica polita; Dose 3000 g/ha)

Oc1cc(C(F)(F)F)nnc1-c1c(F)ccc(F)c1F [Compound 54]
10: weed control effect (activity level), Amaranthus retroflexus (Amaranthus retroflexus; dose 1000 g/ha) | weed control effect (activity level), Chenopodiaceae (Chenopodiaceae; dose 1000 g/ha) | weed control effect (activity level), Rorippa indica (Rorippa indica; dose 1000 g/ha) | weed control effect (activity level), Veronica polita (Veronica polita; dose 1000 g/ha)

Cc1cc(Cl)ncc1-c1nnc(C(F)(F)F)cc1O [Compound 1018]
10: weed control effect (activity level), Amaranthus retroflexus (Amaranthus retroflexus; Dose 3000 g/ha) | weed control effect (activity level), Chenopodiaceae (Chenopodiaceae; Dose 3000 g/ha) | weed control effect (activity level), Rorippa indica (Rorippa indica; Dose 3000 g/ha) | weed control effect (activity level), Veronica polita (Veronica polita; Dose 3000 g/ha)
